Experimental data published in PubChem BioAssay (NCI).
Values joined by “and” are separate entries in the source; they are usually repeats but may differ in a detail not shown here. Identical values can stand only once.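 Method: 48-hour compound exposure of cells in 96-well plates, five concentrations, linear interpolation of endpoints. At the GI50, growth is halved. TGI denotes the concentration required for complete inhibition of growth.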

How the values were obtained:
Assay in all cases: NCI-60 cell line screen, 48 h
HT29 colon = tested on: HT29 colon
SK-MEL-2 melanoma = tested on: SK-MEL-2 melanoma
K-562 leukemia = tested on: K-562 leukemia
HOP-92 NSCLC = tested on: HOP-92 NSCLC
MOLT-4 leukemia = tested on: MOLT-4 leukemia
NCI-H522 lung = tested on: NCI-H522 lung
SR leukemia = tested on: SR leukemia
RXF 393 renal = tested on: RXF 393 renal
SN12C renal = tested on: SN12C renal
CAKI-1 renal = tested on: CAKI-1 renal

| SMILES | GI50 (HT29 colon) | TGI (HT29 colon) | GI50 (SK-MEL-2 melanoma) | TGI (SK-MEL-2 melanoma) | GI50 (K-562 leukemia) | TGI (K-562 leukemia) | GI50 (HOP-92 NSCLC) | TGI (HOP-92 NSCLC) | GI50 (MOLT-4 leukemia) | TGI (MOLT-4 leukemia) | GI50 (NCI-H522 lung) | TGI (NCI-H522 lung) | GI50 (SR leukemia) | TGI (SR leukemia) | GI50 (RXF 393 renal) | TGI (RXF 393 renal) | GI50 (SN12C renal) | TGI (SN12C renal) | GI50 (CAKI-1 renal) | TGI (CAKI-1 renal) |
| --- | --- | --- | --- | --- | --- | --- | --- | --- | --- | --- | --- | --- | --- | --- | --- | --- | --- | --- | --- | --- |
| CCN1CCN(CCOc2ccc(CNc3ccc4nc(CCC5CCCCC5)[nH]c4c3)cc2)CC1 | 0.563 µM | 2.38 µM | 1.92 µM | 3.77 µM | 0.42 µM | 2.69 µM | 0.925 µM | 3.09 µM | 1.87 µM | 6.09 µM | 2.44 µM | 5.95 µM | 0.303 µM | 0.941 µM | 1.3 µM | 3.31 µM | 2.72 µM | 11 µM | 2.01 µM | 4.11 µM |
| CC1=C(N2CC2)C(=O)C(CO)=C(N2CC2)C1=O | – | 0.148 µM and 0.435 µM | – | 0.0988 µM and 0.585 µM | – | 1.07 µM | 0.0183 µM and 0.018 µM | 0.247 µM and 0.28 µM | – | 5.88 µM | 0.0112 µM | 0.0385 µM and 0.0489 µM | – | > 49 µM | – | 0.0946 µM | 0.0057 µM | 0.0367 µM and 0.139 µM | 0.00256 µM | 0.412 µM and 0.243 µM |
| O=S(=O)(NCCNc1nccc(-c2c(-c3cccc(O)c3)nc3sccn23)n1)c1ccc(F)cc1 | 2.66 µM | 32.4 µM | 4.49 µM | 20.2 µM | 3.88 µM | > 100 µM | 11.5 µM | 57 µM | 5.53 µM | 32 µM | 6.44 µM | 27.1 µM | 2.65 µM | 57.3 µM | 2.44 µM | 12.5 µM | 4.26 µM | 44.9 µM | 3.69 µM | 40.5 µM |
| CC(C)(O)[C@@H]1CCC(C)([C@H]2[C@@H](O)CC3(C)C4CC(OC5OC(CO)C(O)C(O)C5O)C5C(C)(C)[C@@H](OC6OCC(O)C(O)C6O)CC[C@@]56C[C@@]46CC[C@]23C)O1 (stereo partly specified) | – | > 100 µM | – | > 100 µM | – | > 100 µM | – | > 100 µM | – | > 100 µM | – | > 100 µM | – | > 100 µM | – | > 100 µM | – | > 100 µM | – | – |
| COC(=O)[C@]12CC[C@@H](C)[C@H](C)[C@@H]1C1=CC[C@@H]3[C@@]4(C)C[C@@H](OC(=O)c5ccco5)[C@H](O)[C@@](C)(CO)[C@@H]4[C@H](O)C[C@@]3(C)[C@]1(C)CC2 | 1.8 µM | 3.41 µM | 1.97 µM | 4.31 µM | 2.35 µM | 5.42 µM | 2.59 µM | 6.19 µM | 2.04 µM | 4.44 µM | 1.82 µM | 3.96 µM | 1.99 µM | 4.68 µM | 1.66 µM | 3.34 µM | – | – | 2.99 µM | 10.9 µM |
| Nc1nc(-c2ccccc2)c(-c2ccccc2)c(-c2nc(N)nc(-c3ccccc3)c2-c2ccccc2)n1 | – | > 100 µM | – | > 100 µM | – | > 100 µM | – | > 100 µM | – | > 100 µM | – | > 100 µM | – | > 100 µM | – | > 100 µM | – | > 100 µM | – | > 100 µM |
| COc1cc(/C=C/C(=O)C(=Cc2ccc(F)c(F)c2)C(=O)/C=C/c2ccc(O)c(OC)c2)ccc1O | 1.72 µM | 3.63 µM | 1.81 µM | 3.58 µM | 3.16 µM | 32.8 µM | 2.51 µM | 6.05 µM | 2.75 µM | > 100 µM | 1.45 µM | 3.12 µM | 2.83 µM | 9.2 µM | 1.74 µM | 3.2 µM | 2.65 µM | 7.86 µM | 3.51 µM | 20.2 µM |
